Measured values from PMC6379071 (Biochemistry, 2016).
Like-named read-outs stand apart in the source and are kept apart here.

Key:
[1] = target: T1, SULT1A1 (Homo sapiens, UniProt P50225); type: binding
[2] = target: T1, SULT1A1; experiment: Presteady state; type: binding
[3] = target: T1, SULT1A1; details: SULT1A1 isoform; cited from earlier work
[4] = target: T2, SULT2A1 (Homo sapiens, UniProt Q06520); experiment: 35S-PAPS test whether EGCG is a substrate; type: biochemical
T2 sequence (Q06520 1-285): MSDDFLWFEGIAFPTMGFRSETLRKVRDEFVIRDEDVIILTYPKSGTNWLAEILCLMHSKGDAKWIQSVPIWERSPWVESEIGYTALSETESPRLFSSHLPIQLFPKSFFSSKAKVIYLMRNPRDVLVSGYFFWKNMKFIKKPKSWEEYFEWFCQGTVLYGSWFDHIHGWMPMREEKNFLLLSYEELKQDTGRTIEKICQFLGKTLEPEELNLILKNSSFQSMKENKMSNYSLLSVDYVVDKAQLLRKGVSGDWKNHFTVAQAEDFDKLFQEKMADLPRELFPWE

[5] = target: T1, SULT1A1; experiment: 35S-PAPS test whether EGCG is a substrate; type: biochemical
[6] = cited from earlier work
[7] = target: T1, SULT1A1; details: cited from earlier work; for second molecule binds more weakly than the first: unliganded SULT1A1 dimer
[8] = target: T1, SULT1A1; details: PAP, cited from earlier work
[9] = target: T1, SULT1A1; details: PAPS 100 μM, NaPO4 50 mM, pH 7.2, 25 °C
[10] = read-out: Kd of acceptor, enzyme form E·(EGCG)2
[11] = EGCG binding to E·(PAP)2, two-step model
[12] = EGCG, enzyme species E·PAP·EGCG

T1 sequence (P50225 whole entry): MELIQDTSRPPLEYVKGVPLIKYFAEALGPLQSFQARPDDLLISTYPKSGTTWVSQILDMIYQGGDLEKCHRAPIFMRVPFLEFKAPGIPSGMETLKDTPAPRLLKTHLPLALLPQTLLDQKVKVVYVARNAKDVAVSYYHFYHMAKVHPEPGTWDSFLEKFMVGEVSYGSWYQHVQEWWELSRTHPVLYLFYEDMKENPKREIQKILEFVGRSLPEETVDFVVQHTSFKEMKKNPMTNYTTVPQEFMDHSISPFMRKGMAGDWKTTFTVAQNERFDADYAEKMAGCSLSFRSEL

SMILES: C[C@]12CC[C@@H]3c4ccc(O)cc4CC[C@H]3[C@@H]1CC[C@@H]2O [E2, 17-β-estradiol]
- Kd [1]: 1000 nM
- decrease of acceptor affinity when EGCG binds to E·(PAP)2 [1]: not affected
- Kd [1, 10]: 1000 nM
- Kd ([1]; read-out: Kd of acceptor, enzyme form E·(PAP)2): 1000 nM
- Kd ([1]; read-out: Kd of acceptor, enzyme form E·(PAP)2·(EGCG)2): 1000 nM

SMILES: O=C(O[C@@H]1Cc2c(O)cc(O)cc2O[C@@H]1c1cc(O)c(O)c(O)c1)c1cc(O)c(O)c(O)c1 [EGCG, epigallocatechin gallate]
- affinity of EGCG for E·PAP relative to its affinity for E [1]: 15 fold
- EGCG binding stoichiometry ([1]; E·(PAP)2): 1.0 EGCG/subunit
- EGCG binding stoichiometry ([1]; E·PAP, PAP-containing subunit (high-affinity site)): 1.0 per dimer
- EGCG binds more tightly to cap-closed (nucleotide-bound) form ([1]; cap closed vs open): 17 fold
- EGCG-binding stoichiometry ([1]; ligand-free enzyme, [SULT1A1] = 15 Kd): 1.0 per subunit
- Kd ([1]; read-out: Kd EGCG, enzyme form E (ligand-free), allosteric site): 680 nM
- Kd ([1]; read-out: Kd EGCG, enzyme form E·(PAP)2): 39 nM
- Kd ([1]; read-out: Kd EGCG, enzyme form E·EGCGPAP): 810 nM
- Kd ([1]; read-out: Kd EGCG, enzyme form E·PAP): 44 nM
- Kiso for the cap of the high-affinity subunit in the E·(EGCG)2 complex ([2]; 21 × 18): 378
- kfor, binding step [2, 11]: 9.9 (0.6) × 10^6M^−1s^−1
- kfor, isomerization step (cap closure) [2, 11]: 172 s⁻¹
- krev, binding step [2, 11]: 6.5 s⁻¹
- krev, isomerization step [2, 11]: 10 s⁻¹
- koff ([2]; EGCG, enzyme species E): 6.9 (0.2) s^−1
- kon ([2]; EGCG, enzyme species E): 9.8 (0.3)^a μM^−1s^−1
- koff ([2]; EGCG, enzyme species E·PAP): 0.62 (0.03) s^−1
- kon ([2]; EGCG, enzyme species E·PAP): 13.5 (0.7) μM^−1s^−1
- koff [2, 12]: 13.9 (0.2) s^−1
- kon [2, 12]: 17.1 (0.3) μM^−1s^−1
- Kiso, isomerization equilibrium constant ([2]; EGCG-bound E·(PAP)2): 17
- Kd ([2]; read-out: Kd (koff/Kon), EGCG, enzyme species E): 710 nM
- Kd ([2]; read-out: Kd (koff/Kon), EGCG, enzyme species E·PAP): 46 nM
- Kd ([2]; read-out: Kd (koff/Kon), EGCG, enzyme species E·PAP·EGCG): 810 nM
- Ki [3]: 34 nM
- EGCG converted to product ([4]; EGCG 30 μM, 35S-PAPS 30 μM, SULT2A1 0.50 μM dimer, in 2 min): 12%
- PAPS converted to sulfonated EGCG ([4]; SULT2A1 30 μM, EGCG 250 μM, 35S-PAPS 0.30 μM, in 1.0 min): Thirty-four
- sulfonation of EGCG ([5]; SULT1A1 30 μM, EGCG 250 μM, 35S-PAPS 0.30 μM, over 30 min): not detected
- turnover of EGCG ([5]; from lower detection limit ~5 % of PAPS conversion over 30 min): less than 0.16 % min^−1
- concentration of EGCG in human plasma [6]: ~ 0.4 μ

SMILES: Nc1ncnc2c1ncn2[C@@H]1O[C@H](COP(=O)(O)O)[C@@H](OP(=O)(O)O)[C@H]1O [PAP, 3’, 5’-diphosphoadenosine]
- decrease in the affinity of the second nucleotide caused by binding of the first ([1]; E·(EGCG)2 complex): 33 fold
- Kd ([1]; Kd PAP, enzyme form E·(EGCG)2 (high-affinity site)): 24 nM
- Kd ([1]; Kd PAP, enzyme form E·(EGCG)2PAP (low-affinity site)): 780 nM
- Kd ([1]; Kd PAP, enzyme form E·EGCGPAP): 31000 nM
- increase of PAP affinity at saturating EGCG ([1]; high-affinity site): 15 fold
- increase of PAP affinity at saturating EGCG ([1]; low-affinity site): 40 fold
- koff for PAP departure from the high affinity site of E·(EGCG)2, fold less than that from E [2]: 18 fold
- Kd ([2]; Kd (koff/Kon), PAP, enzyme species E·(EGCG)2): 22 nM
- Kd ([2]; Kd (koff/Kon), PAP, enzyme species E·(EGCG)2·PAP): 880 nM
- kon ([2]; PAP, enzyme species E·(EGCG)2 (high-affinity site)): 1.7e+06 M⁻¹ s⁻¹
- koff ([2]; PAP, enzyme species E·(EGCG)2 (high-affinity site), saturating EGCG): 0.038 s⁻¹
- koff ([2]; PAP, enzyme species E·(EGCG)2·PAP): 0.77 s⁻¹
- kon ([2]; PAP, enzyme species E·(EGCG)2·PAP (low-affinity site)): 880000 M⁻¹ s⁻¹
- Kd ([7]; read-out: Kd PAP, enzyme form E): 350 nM
- second molecule binds more weakly than the first [7]: 88 fold
- koff ([8]; enzyme species E): 0.70 (0.05) s^−1
- kon ([8]; enzyme species E): 2.0 (0.1) μM^−1s^−1
- koff ([8]; enzyme species E·PAP): 29 ([1]) s^−1
- kon ([8]; enzyme species E·PAP): 0.96 (0.01) μM^−1s^−1
- Kd ([8]; read-out: Kd (koff/Kon), enzyme species E): 370 nM

SMILES: Nc1ncnc2c1ncn2[C@@H]1O[C@H](COP(=O)(O)OS(=O)(=O)O)[C@@H](OP(=O)(O)O)[C@H]1O [PAPS, 3’-phosphoadenosine 5’-phosphosulfate]
- second molecule binds more weakly than the first [7]: 88 fold

SMILES: O=[N+]([O-])c1ccc(O)cc1 [PNP, para-nitrophenol]
- kcat ([9]; PNP as acceptor): 60 (± 1.8)
- Ki ([9]; PNP): 6600 nM
- Km ([9]; read-out: Km (PNP)): 1.4 µM

SMILES: CC/C(=C(\c1ccc(O)cc1)c1ccc(OCCN(C)C)cc1)c1ccccc1 [TAM, 4-hydroxytamoxifen]
- decrease of acceptor affinity when EGCG binds to E·(PAP)2 [1]: 23 fold
- Kd ([1]; Kd of acceptor, enzyme form E·(PAP)2): 700 nM
- Kd ([1]; Kd of acceptor, enzyme form E·(PAP)2·(EGCG)2): 16000 nM
- Kd ([1]; read-out: Kd of acceptor, enzyme form E): 650 nM
- Kd [1, 10]: 670 nM
